Test results taken from publication PMC6266305 (Nutrients, 2018).
Values joined by “and” are separate entries in the source; they are usually repeats but may differ in a detail not shown here. Equal entries are not always repeated. Where two headings read alike, the source gives them in different places. One block for each compound: values may come before it.

What was measured:
[1] = set-up: method as in PMID 21494673; conditions: cited from earlier work
[2] = set-up: method as in PMID 27355793; conditions: Tyr from olives; cited from earlier work
[3] = Uptake and apical-to-basolateral transport by Caco-2 TC7 cell monolayers of diluted aqueous fractions from in vitro digestions; assay type: in vitro ADME, human; conditions: human; for recovery at 6 h: Caco-2, 6 h
Method: (§1) Caco-2 TC7 cells were grown in DMEM supplemented with 16% (v/v) fetal bovine serum, 1% (v/v) non-essential amino-acids, and 1% (v/v) antibiotics (complete medium), as previously described. Cells were then seeded at a density of 15 000 cells/well, grown on transwell membrane (six-well plate, […] polycarbonate membrane; Becton Dickinson) and incubated in humidified atmosphere of 5% CO2 and 95% air at 37 °C during 21 days to obtain confluent and differentiated cell monolayers.
(§2) The cytotoxicity on Caco-2 cells of the aqueous fractions from in vitro digestions was first assessed to determine the suitable dilution required before adding the aqueous fractions to the apical side of cell monolayers. […] To avoid any interference with DMEM or serum components, the aqueous fractions were diluted in HBSS. Caco-2 cells also received HBSS in both chambers 12 h before the experiments. At the beginning of each experiment, cells were rinsed twice with 1 mL of PBS. Then, 1 mL of diluted aqueous fraction was added to the apical side and 2 mL of HBSS were added at the basolateral side. After an incubation period (2, 4, or 6 h) at 37 °C, both apical and basolateral media were harvested. Cells were then rinsed twice with 1mL of PBS and scrapped in 0.5 mL of iced-cold PBS. All analyses were run in quadruplicate and samples were stored at −80 °C until further analysis.
(§3) Gallic acid was chosen as internal standard as it was not present in the extract. Phenolic compounds were extracted from salivary, gastric and duodenal samples as follows: 0.3 mL of ethanol and 0.2 mL of n-hexane were added to 0.2 mL of sample and the mixture was stirred for 10 min using a vortex blender at maximal speed. After centrifugation (3560 g for 10 min at 4 °C), the lower phase was collected. The solid bottom was re-extracted with 0.3 mL of ethanol and vortexed for 10 min. The second ethanol phase recovered was pooled to the previously collected phase, and then dried using a Speed-Vac®. The dried extracts were dissolved in 200 µL of water. Apical media were directly injected. To concentrate them, basolateral media (1900 µL) were dried using a Speed-Vac®, and the dried residues were dissolved into 80 µL of water. All samples were stored at −80 °C before analysis.
(§4) Following the procedure by Gallardo et al. (2016), 50 µL of internal standard were added to harvested cells (in 500 µL PBS). Samples were then sonicated for 10 min at room temperature and centrifuged (10,000 g for 10 min at 4 °C). Supernatants were collected and evaporated to dryness. The dried residues were dissolved in 50 µL of water and stored at −80 °C before analysis.
(§5) All samples were analyzed by UHPLC-DAD-MS using an Acquity UPLC® system that was linked to both a diode-array detector and a Bruker Daltonics HCT Ultra Ion Traps mass spectrometer equipped with an Electron Spray Ionization (ESI) source operating in negative ion mode. The separation was performed on an Acquity C18 BEH column (50 × 2.1 mm i.d., 1.7 µm) kept at 35 °C. The solvents were (A) water/formic acid (99.5/0.5) and (B) acetonitrile. The proportions of solvent B used were: 0–10 min: 1–20%, 10–12 min: 20–30%, 12–14 min: 30–100%. Along the three steps of the gradient, the flow rate was 0.30, 0.35, and 0.40 mL/min. The injection volume was 1 μL for digestion and apical medium samples, and 10 µL for cells and basolateral samples. Chromatograms were acquired at 280 nm. The spectroscopic detection was performed in the range 200–800 nm with a resolution of 1.2 nm. The concentrations of phenolic compounds Tyr, CA, and p-Cm were estimated from calibration curves (peak area vs. concentration) with R² values greater than 0.99 [26].
(§6) Results were expressed as means ± standard deviations. Differences between means were assessed using ANOVA followed by the post-hoc Tukey test for parametric data. P values under 0.05 were considered to be significant. […]

[4] = tested on: Caco-2 TC7 cells; assay: as above; assay type: in vitro ADME, human; conditions: for Amount found in the cytosolic compartment of Caco-2 cells, percentage of the initial amount at the apical side: 6 h incubation; for FA at the basolateral side as percentage (CA equivalent) of the initial CA amount in the apical side: 6 h, FA is the CA metabolite
Method: as §1, §2, §3, §4, §5, §6

[5] = tested on: Caco-2 cells; assay: Overall in vitro bioavailability: basolateral amount in Caco-2 cells relative to the initial amount in the test meal before in vitro digestion; assay type: in vitro ADME, human; conditions: mean ± SD (n = 4)
Method: The in vitro digestion was carried out as previously described. […] The mixture was dispersed with Ultra-Turrax® (Ika) and artificial saliva (2.5 mL, pH 7) was added to the mixture. The sample was incubated for 10 min at 37 °C in a shaking incubator. […] Then, porcine pepsin (2 mL, 40 mg/mL in 0.1 M HCl) was added and the homogenate was incubated at 37 °C in a shaking incubator for 30 min simulating the gastric step. […] Samples were incubated in a shaking incubator at 37 °C for 30 min to complete the digestion process. The final mixture representing the digesta was centrifuged (2500 g for 1 h at 10 °C) to separate the aqueous fraction. […] The cytotoxicity on Caco-2 cells of the aqueous fractions from in vitro digestions was first assessed to determine the suitable dilution required before adding the aqueous fractions to the apical side of cell monolayers. […] To avoid any interference with DMEM or serum components, the aqueous fractions were diluted in HBSS. Caco-2 cells also received HBSS in both chambers 12 h before the experiments. At the beginning of each experiment, cells were rinsed twice with 1 mL of PBS. […] Cells were then rinsed twice with 1mL of PBS and scrapped in 0.5 mL of iced-cold PBS. All analyses were run in quadruplicate and samples were stored at −80 °C until further analysis. Results were expressed as means ± standard deviations. Differences between means were assessed using ANOVA followed by the post-hoc Tukey test for parametric data. […] Two parameters were assessed to express the bioavailability: a) the ratio between the mass of phenolic compounds recovered at the basolateral side and the initial mass added to the apical side, b) the ratio between the mass of phenolic compounds recovered at the basolateral side and the initial mass added to the meal.

[6] = In vitro digestion model: bioaccessibility of alperujo phenolic compounds added to a test meal (percentage found in the aqueous phase of the digesta); assay type: in vitro ADME; conditions: pig
Method: The in vitro digestion was carried out as previously described. […] The mixture was dispersed with Ultra-Turrax® (Ika) and artificial saliva (2.5 mL, pH 7) was added to the mixture. The sample was incubated for 10 min at 37 °C in a shaking incubator. The pH of the gastric medium was adjusted to 4.00 ± 0.02 with 1 M HCl. Then, porcine pepsin (2 mL, 40 mg/mL in 0.1 M HCl) was added and the homogenate was incubated at 37 °C in a shaking incubator for 30 min simulating the gastric step. The pH of the mixture was raised to 6.00 ± 0.02 with 0.9 M NaHCO3 and 13 mL of a mixture of porcine bile extract (39.08 mg/mL) and pancreatin (2.08 mg/mL) in 0.1 M trisodium citrate (pH 6) were added. Samples were incubated in a shaking incubator at 37 °C for 30 min to complete the digestion process. The final mixture representing the digesta was centrifuged (2500 g for 1 h at 10 °C) to separate the aqueous fraction. […] All analyses were run in quadruplicate. Aliquots from salivary, gastric, and duodenal steps were frozen at −80 °C until use. […] After centrifugation (3560 g for 10 min at 4 °C), the lower phase was collected. The solid bottom was re-extracted with 0.3 mL of ethanol and vortexed for 10 min. The second ethanol phase recovered was pooled to the previously collected phase, and then dried using a Speed-Vac®. The dried extracts were dissolved in 200 µL of water. Apical media were directly injected. […] All samples were stored at −80 °C before analysis. All samples were analyzed by UHPLC-DAD-MS using an Acquity UPLC® system that was linked to both a diode-array detector and a Bruker Daltonics HCT Ultra Ion Traps mass spectrometer equipped with an Electron Spray Ionization (ESI) source operating in negative ion mode. The separation was performed on an Acquity C18 BEH column (50 × 2.1 mm i.d., 1.7 µm) kept at 35 °C. The solvents were (A) water/formic acid (99.5/0.5) and (B) acetonitrile. […] Along the three steps of the gradient, the flow rate was 0.30, 0.35, and 0.40 mL/min. […] Chromatograms were acquired at 280 nm. The spectroscopic detection was performed in the range 200–800 nm with a resolution of 1.2 nm.

Compound: O=C1C[C@@H](c2ccc(O)cc2)Oc2cc(O)cc(O)c21 [naringenin]
Improvement of absorption through the gut epithelium by hydroxypropyl-β-CD [1]: 11 fold

recovery at 6 h ([3]; from alperujo-CD, mean ± SD (n = 4), read-out: Bioavailability in Caco-2 cells (recovery on the basolateral side) as percentage of initial apical amount): 25.2 ± 1.3%
recovery at 6 h ([3]; from alperujo, mean ± SD (n = 4), read-out: Bioavailability in Caco-2 cells (recovery on the basolateral side) as percentage of initial apical amount): ~22.9%
recovery at 6 h ([3]; read-out: Total recovery in the three compartments (apical, basolateral, cells)): ~100%
Basolateral amount as percentage of initial apical amount (Caco-2 transport) ([3]; Caco-2, whether from alperujo or alperujo-CD, read-out: Bioavailability (basolateral amount compared with initial apical amount)): > 20%
Amount found in the cytosolic compartment of Caco-2 cells, percentage of the initial amount at the apical side ([4]; from alperujo): 1.6 ± 0.1%
Amount found in the cytosolic compartment of Caco-2 cells, percentage of the initial amount at the apical side ([4]; from alperujo-CD): 1.4 ± 0.1%
Metabolism in the intestinal cells ([4]; Caco-2 cells, inferred from total recovery): no metabolism occurred
Bioavailability in Caco-2 cells as percentage of initial amount in the test meal before in vitro digestion (bioaccessibility × absorption by Caco-2 cells) ([5]; from alperujo-CD): 16.8 ± 0.5 ^a %
Bioavailability in Caco-2 cells as percentage of initial amount in the test meal before in vitro digestion (bioaccessibility × absorption by Caco-2 cells) ([5]; from alperujo-CD, listed as tyrosol): 16.8 ± 0.5%
Bioavailability in Caco-2 cells as percentage of initial amount in the test meal before in vitro digestion (bioaccessibility × absorption by Caco-2 cells) ([5]; from alperujo): 16.2 ± 0.6 ^a %
Bioavailability in Caco-2 cells as percentage of initial amount in the test meal before in vitro digestion (bioaccessibility × absorption by Caco-2 cells) ([5]; from alperujo, listed as tyrosol): 16.2 ± 0.6%
recovery ([6]; pH 6, in vitro digestion with test meal, average of alperujo and alperujo-CD, mean ± SD, read-out: Bioaccessibility (recovery in the final aqueous phase at the duodenal step)): 83.7 ± 2.4%
recovery ([6]; pH 6, in vitro digestion, relative to the initial quantity, read-out: Recovery in the digesta): ≥ 100%
Compound: OCCc1ccc(O)cc1 [Tyr, tyrosol]
Higher bioaccessibility of Tyr than HT [2]: 16%

FA at the basolateral side as percentage (CA equivalent) of the initial CA amount in the apical side ([4]; from alperujo-CD): 23.4 ± 2.2% and 23.4 ± 2.2 ^b %
FA at the basolateral side as percentage (CA equivalent) of the initial CA amount in the apical side ([4]; from alperujo): 18.8 ± 1.0% and 18.8 ± 1.0 ^a %
Absorption efficiency of FA through cell monolayers, percentage of the initial CA amount ([4]; alperujo and alperujo-CD): ~ 20%
Bioavailability of FA (CA metabolite) in Caco-2 cells as percentage of initial amount in the test meal before in vitro digestion ([5]; from alperujo-CD): 10.0 ± 1.0 ^a %
Bioavailability of FA (CA metabolite) in Caco-2 cells as percentage of initial amount in the test meal before in vitro digestion ([5]; from alperujo): 8.9 ± 0.5 ^a %
Compound: COc1cc(/C=C/C(=O)O)ccc1O [FA, Ferulic acid]
